Where a SMILES comes first, the peptide text is derived from it. Bridges are numbered along the chain shown (N, C = ends). [ ]: non-standard residue; d: D form. The star is where a group is joined. hPhe(3,5-F2-4-CF3) = N[C@@H](CCc1cc(F)c(C(F)(F)F)c(F)c1)C(=O)O; hPhe(3-Cl-4-CF3) = N[C@@H](CCc1ccc(C(F)(F)F)c(Cl)c1)C(=O)O; NPrPhe(4-CF3) = CCCN[C@@H](Cc1ccc(C(F)(F)F)cc1)C(=O)O; Abu(4,4,4-F3) = N[C@@H](CC(F)(F)F)C(=O)O; NMeGly(cPent) = CN[C@H](C(=O)O)C1CCCC1; Pro(4,4-F2) = O=C(O)[C@@H]1CC(F)(F)CN1; NMeD = CN[C@@H](CC(=O)O)C(=O)O; NMeL = CN[C@@H](CC(C)C)C(=O)O; αMeS = C[C@](N)(CO)C(=O)O; Morpholide = C1CN(*)CCO1; Ac5c = NC1(C(=O)O)CCCC1; Aze = O=C(O)[C@@H]1CCN1; Ac4c = NC1(C(=O)O)CCC1; Sar = CNCC(=O)O
Assays:
[1] = molecular target: GDP-bound NRAS wild-type protein (Homo sapiens, UniProt P01111); experiment: Binding to NRAS by surface plasmon resonance (SPR), Single Cycle Kinetics; conditions: SPR
Chain of GDP-bound NRAS wild-type protein (P01111 whole entry): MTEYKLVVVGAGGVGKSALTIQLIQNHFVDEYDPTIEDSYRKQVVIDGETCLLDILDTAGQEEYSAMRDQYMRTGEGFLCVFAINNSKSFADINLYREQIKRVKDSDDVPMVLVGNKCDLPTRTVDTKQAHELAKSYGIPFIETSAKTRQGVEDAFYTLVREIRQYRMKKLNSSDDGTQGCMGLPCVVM

[2] = molecular target: GDP-bound HRAS wild-type protein (Homo sapiens, UniProt P01112); experiment: Binding to HRAS by surface plasmon resonance (SPR), Single Cycle Kinetics; conditions: SPR
Chain of GDP-bound HRAS wild-type protein (P01112 whole entry): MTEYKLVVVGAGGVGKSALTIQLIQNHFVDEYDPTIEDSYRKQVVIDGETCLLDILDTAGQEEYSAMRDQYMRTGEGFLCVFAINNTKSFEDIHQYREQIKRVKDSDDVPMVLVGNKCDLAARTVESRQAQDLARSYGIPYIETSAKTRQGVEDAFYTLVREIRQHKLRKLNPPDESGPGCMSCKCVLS

[3] = KD ratio, GDP-bound NRAS wild-type vs GDP-bound KRAS wild-type
[4] = KD ratio, GDP-bound HRAS wild-type vs GDP-bound KRAS wild-type

Structure (SMILES): CCCN(C)C(=O)[C@@H]1CC(=O)N(C)[C@@H](CC(C)C)C(=O)N[C@@H]([C@@H](C)CC)C(=O)N(C)CC(=O)N(C)[C@H]2C/C=C\CCN(C2=O)[C@@H](Cc2ccc(C(F)(F)F)cc2)C(=O)N(C)CC(=O)N[C@@H](CCc2cc(F)c(C(F)(F)F)c(F)c2)C(=O)N2C[C@H](OCC)C[C@H]2C(=O)NC2(CCC2)C(=O)N(C)[C@@H](C2CCCC2)C(=O)N1C [PP1387]
- NRAS/KRAS (ratio of KD value for GDP-bound NRAS wild-type protein to KD value for KRAS) ([1]; KD ratio class): A (a compound having 10 or more and less than 20 is denoted as A)
- HRAS/KRAS (ratio of KD value for GDP-bound HRAS wild-type protein to KD value for KRAS) ([2]; KD ratio class): B (a compound having 3 or more and less than 10 is denoted as B)

Structure (SMILES): CCCN1C(=O)CN(C)C(=O)CN(C)C(=O)[C@H]([C@@H](C)CC)NC(=O)[C@H](CC(C)C)N(C)C(=O)C[C@@H](C(=O)N(C)C)NC(=O)[C@H](C2CCCC2)N(C)C(=O)C2(CCC2)NC(=O)[C@@H]2CC(F)(F)CN2C(=O)[C@H](CCc2ccc(C(F)(F)F)c(Cl)c2)NC(=O)CN(C)C(=O)[C@@H]1Cc1ccc(C(F)(F)F)cc1 [PP0358] ([NMeL]I[Sar][Sar][NPrPhe(4-CF3)][Sar][hPhe(3-Cl-4-CF3)][Pro(4,4-F2)][Ac4c][NMeGly(cPent)]D-NMe2; lactam N-11)
- NRAS/KRAS (ratio of KD for GDP-bound NRAS wild-type to KD for KRAS) ([1]; KD ratio NRAS/KRAS): B (a compound having 3 or more and less than 10 is denoted as B)
- HRAS/KRAS (ratio of KD for GDP-bound HRAS wild-type to KD for KRAS) ([2]; KD ratio HRAS/KRAS): C (A compound having a KD ratio of 0.1 or more and less than 3 is denoted as C)

Structure (SMILES): CCO[C@@H]1C[C@H]2C(=O)NC3(CCC3)C(=O)N(C)[C@@H](C3CCCC3)C(=O)N(C)[C@H](C(=O)N(C)C)CC(=O)N(C)[C@@H](CC(C)C)C(=O)N[C@@H]([C@@H](C)CC)C(=O)N(C)CC(=O)N(C)[C@H]3C[C@@H](C)CCN(C3=O)[C@@H](Cc3ccc(C(F)(F)F)cc3)C(=O)N(C)CC(=O)N[C@@H](CCc3cc(F)c(C(F)(F)F)c(F)c3)C(=O)N2C1 [PP1018]
- NRAS/KRAS (ratio of KD value with respect to NRAS to KD value with respect to KRAS) [1, 3]: C (A compound having a KD ratio of 0.1 or more and less than 3 is denoted as C)
- HRAS/KRAS (ratio of KD value with respect to HRAS to KD value with respect to KRAS) [2, 4]: B (a compound having 3 or more and less than 10 is denoted as B)

Structure (SMILES): CCO[C@@H]1C[C@H]2C(=O)NC3(CCC3)C(=O)N(C)[C@@H](C3CCCC3)C(=O)N(C)[C@H](C(=O)N3CCOCC3)CC(=O)N(C)[C@@H](CC(C)C)C(=O)N[C@@H]([C@H](C)CC)C(=O)N(C)CC(=O)N(C)[C@H]3CCCCCN(C3=O)[C@@H](Cc3ccc(C(F)(F)F)cc3)C(=O)N(C)CC(=O)N[C@@H](CCc3cc(F)c(C(F)(F)F)c(F)c3)C(=O)N2C1 [PP0815]
- NRAS/KRAS (ratio of KD value with respect to NRAS to KD value with respect to KRAS) [1, 3]: B (a compound having 3 or more and less than 10 is denoted as B)
- HRAS/KRAS (ratio of KD value with respect to HRAS to KD value with respect to KRAS) [2, 4]: B (a compound having 3 or more and less than 10 is denoted as B)

Structure (SMILES): CCO[C@@H]1C[C@H]2C(=O)NC3(CCCC3)C(=O)N(C)[C@@H](C3CCCC3)C(=O)N(C)[C@H](C(=O)N(C)C)CC(=O)N(C)[C@@H](CC)C(=O)N[C@@H]([C@@H](C)CC)C(=O)N(C)CC(=O)N(C)[C@H]3C/C=C\CCN(C3=O)[C@@H](Cc3ccc(C(F)(F)F)cc3)C(=O)N(C)CC(=O)N[C@@H](CCc3cc(C)c(Cl)c(C)c3)C(=O)N2C1 [PP1823]
- NRAS/KRAS (ratio of KD value for NRAS to KD value for KRAS) [1, 3]: A (a compound having 10 or more and less than 20 is denoted as A)
- HRAS/KRAS (ratio of KD value for HRAS to KD value for KRAS) [2, 4]: A (a compound having 10 or more and less than 20 is denoted as A)

Structure (SMILES): CCCN1C(=O)CN(C)C(=O)[C@@H]2CCN2C(=O)[C@H](CC(F)(F)F)NC(=O)[C@H](CC(C)C)N(C)C(=O)C[C@@H](C(=O)N2CCOCC2)N(C)C(=O)[C@H](C2CCCC2)N(C)C(=O)C2(CCCC2)NC(=O)[C@@H]2CCCN2C(=O)[C@H](CCc2ccc(C(F)(F)F)c(Cl)c2)NC(=O)CN(C)C(=O)[C@@H]1Cc1ccc(C(F)(F)F)cc1 [PP0304] ([NMeL][Abu(4,4,4-F3)][Aze][Sar][NPrPhe(4-CF3)][Sar][hPhe(3-Cl-4-CF3)]P[Ac5c][NMeGly(cPent)][NMeD]-Morpholide; lactam N-11)
- NRAS/KRAS (ratio of KD for GDP-bound NRAS wild-type to KD for KRAS) ([1]; KD ratio NRAS/KRAS): B (a compound having 3 or more and less than 10 is denoted as B)
- HRAS/KRAS (ratio of KD for GDP-bound HRAS wild-type to KD for KRAS) ([2]; KD ratio HRAS/KRAS): B (a compound having 3 or more and less than 10 is denoted as B)

Structure (SMILES): CCCN1C(=O)CN(C)C(=O)CN(C)C(=O)[C@H]([C@@H](C)CC)NC(=O)[C@H](CC(C)C)N(C)C(=O)C[C@@H](C(=O)N2CCOCC2)N(C)C(=O)[C@H](C2CCCC2)N(C)C(=O)[C@](C)(COC)NC(=O)[C@@H]2CCCN2C(=O)[C@H](CCc2cc(F)c(C(F)(F)F)c(F)c2)NC(=O)CN(C)C(=O)[C@@H]1Cc1ccc(C(F)(F)F)cc1 [PP0762] ([NMeL]I[Sar][Sar][NPrPhe(4-CF3)][Sar][hPhe(3,5-F2-4-CF3)]P[αMeS](Me)[NMeGly(cPent)][NMeD]-Morpholide; lactam N-11)
- NRAS/KRAS (ratio of KD value with respect to GDP-bound NRAS wild-type protein to KD value with respect to KRAS) ([1]; KD ratio NRAS/KRAS): B (a compound having 3 or more and less than 10 is denoted as B)
- HRAS/KRAS (ratio of KD value with respect to GDP-bound HRAS wild-type protein to KD value with respect to KRAS) ([2]; KD ratio HRAS/KRAS): B (a compound having 3 or more and less than 10 is denoted as B)
